Patent US8232287B2, “Pyrimidyl indoline compound” (Daiichi Sankyo Company, Limited, priority 2007, dated 2012)

Test system: Mice C57/BL6J
Assay: Oral glucose tolerance test (oGTT) using mice
Assay type: in vivo
Conditions: Mus musculus, 2 h; blood glucose AUC vs vehicle-administered group; fasted male C57/BL6J mice; 1 mg/ml suspension in 0.5% methylcellulose given orally 30 min before oral glucose load; plasma glucose at pre, 15, 30, 60, 120 min; read-out: Rate of decrease in AUC (%)
Method: Oral Glucose Tolerance Test (oGTT) Using Mice
2.0 to 8.0 mg of a test compound was weighed and then placed in an agate mortar. While the compound was pulverized, a 0.5% methylcellulose solution was added thereto to prepare a 1 mg/ml suspension. Mice C57/BL6J (6- to 8-week-old male) were purchased from Charles River Laboratories Japan Inc. and raised in a cage until they became 9- to 13-week-old. The mice were fasted after 5 to 6 p.m. of the day before the test. On the test day, blood was collected from the tail vein, and the preceding prepared suspension was orally administered to each of the mice. Thirty minutes after administration, blood was further collected from the tail vein (plasma glucose level in this blood was used as a pre-value), and a 20 to 30% glucose solution was then orally administered thereto at a dose of 10 ml/kg for glucose load. After the glucose load, blood was further collected from the tail vein at time points 15, 30, 60, and 120 minutes. The collected blood was centrifuged to separate plasma. The pre-value and plasma glucose levels at 15, 30, 60, and 120 minutes after the glucose load were measured using Glucoroder GXT (Shino-Test Corp.), and the rate of decrease in blood glucose AUC (%) from a vehicle-administered group was calculated. To this vehicle-administered group, a 0.5% methylcellulose solution was administered instead of the suspension of the compound.

With `CC(C)OC(=O)N1CC[C@H](Oc2cc(N3CCc4cc(S(C)(=O)=O)ccc43)ncn2)[C@H](F)C1` (relative stereo) [Example 117, isopropyl cis-3-fluoro-4-[6-(5-methanesulfonyl-2,3-dihydro-indol-1-yl)-pyrimidin-4-yloxy]-piperidine-1-carboxylate] as the molecule, how does the inhibition in vivo at 1000 µg/mL read?
The inhibition in vivo at 1000 µg/mL was 27%.

With `CC(C)(C)OC(=O)N1CCC(Oc2cc(N3CCc4cc(S(C)(=O)=O)ccc43)ncn2)CC1` [Example 1, tert-butyl 4-({6-[5-(methylsulfonyl)indolin-1-yl]pyrimidin-4-yl}oxy)piperidine-1-carboxylate] as the molecule, how does the inhibition in vivo at 1000 µg/mL read?
Its inhibition in vivo at 1000 µg/mL is 28%.

How did the inhibition in vivo at 1000 µg/mL turn out when `CC(C)OC(=O)N1CCC(Oc2cc(N3CCc4cc(S(C)(=O)=O)ccc43)ncn2)CC1` [Example 2, isopropyl 4-({6-[5-(methylsulfonyl)indolin-1-yl]pyrimidin-4-yl}oxy)piperidine-1-carboxylate] was run?
Its inhibition in vivo at 1000 µg/mL is 22%.

`CCS(=O)(=O)c1ccc2c(c1)CCN2c1cc(OC2CCN(C(=O)OCC(C)C)CC2)ncn1` [Example 22, isobutyl 4-({6-[5-(ethylsulfonyl)indolin-1-yl]pyrimidin-4-yl}oxy)piperidine-1-carboxylate] was tested. Which inhibition in vivo at 1000 µg/mL did it give?
The inhibition in vivo at 1000 µg/mL was 21%.

With `CCS(=O)(=O)c1ccc2c(c1)CCN2c1cc(OC2CCN(C(=O)OC(C)C)CC2)ncn1` [Example 31, isopropyl 4-({6-[5-(ethylsulfonyl)indolin-1-yl]pyrimidin-4-yl}oxy)piperidine-1-carboxylate] as the molecule, how does the inhibition in vivo at 1000 µg/mL read?
The inhibition in vivo at 1000 µg/mL was 20%.

How did the inhibition in vivo at 1000 µg/mL turn out when `CS(=O)(=O)c1ccc2c(c1)CCN2c1cc(OC2CCN(C(=O)OCC3CC3)CC2)ncn1` [Example 44, cyclopropylmethyl 4-({6-[5-(methylsulfonyl)indolin-1-yl]pyrimidin-4-yl}oxy)piperidine-1-carboxylate] was run?
Its inhibition in vivo at 1000 µg/mL is 18%.

`CCS(=O)(=O)c1ccc2c(c1)CCN2c1cc(OC2CCN(C(=O)OCC(F)F)CC2)ncn1` [Example 60, 2,2-difluoroethyl 4-({6-[5-(ethylsulfonyl)indolin-1-yl]pyrimidin-4-yl}oxy)piperidine-1-carboxylate] was tested. Which inhibition in vivo at 1000 µg/mL did it give?
The inhibition in vivo at 1000 µg/mL was 22%.

For `C[S+]([O-])c1ccc2c(c1)CCN2c1cc(OC2CCN(C(=O)OC(C)(C)C)CC2)ncn1` (stereo not drawn) [Example 80, tert-butyl 4-({6-[5-(methylsulfinyl)indolin-1-yl]pyrimidin-4-yl}oxy)piperidine-1-carboxylate], which inhibition in vivo at 1000 µg/mL is on record?
Its inhibition in vivo at 1000 µg/mL is 19%.

Which inhibition in vivo at 1000 µg/mL does the source give for `COc1c(OC2CCN(C(=O)OC(C)C)CC2)ncnc1N1CCc2cc(S(C)(=O)=O)ccc21` [Example 83, isopropyl 4-({5-methoxy-6-[5-(methylsulfonyl)indolin-1-yl]pyrimidin-4-yl}oxy)piperidine-1-carboxylate] here?
The inhibition in vivo at 1000 µg/mL was 20%.

How did the inhibition in vivo at 1000 µg/mL turn out when `CC(C)(C)OC(=O)N1CCC(Oc2cc(N3CCc4cc(S(=O)(=O)CCF)ccc43)ncn2)CC1` [Example 85, tert-butyl 4-[(6-{5-[(2-fluoroethyl)sulfonyl]indolin-1-yl}pyrimidin-4-yl)oxy]piperidine-1-carboxylate] was run?
Its inhibition in vivo at 1000 µg/mL is 27%.

With `CC(C)CC(=O)N1CCC(Oc2cc(N3CCc4cc(S(C)(=O)=O)ccc43)ncn2)CC1` [Example 92, 1-(6-{[1-(3-methylbutanoyl)piperidin-4-yl]oxy}pyrimidin-4-yl)-5-(methylsulfonyl)indoline] as the molecule, how does the inhibition in vivo at 1000 µg/mL read?
The inhibition in vivo at 1000 µg/mL was 16%.

`CS(=O)(=O)c1ccc2c(c1)CCN2c1cc(OC2CCN(C(=O)Oc3ccc(F)cc3)CC2)ncn1` [Example 93, 4-fluorophenyl 4-({6-[5-(methylsulfonyl)indolin-1-yl]pyrimidin-4-yl}oxy)piperidine-1-carboxylate] was tested. Which inhibition in vivo at 1000 µg/mL did it give?
The inhibition in vivo at 1000 µg/mL was 15%.

`CS(=O)(=O)c1ccc2c(c1)CCN2c1cc(OC2CCN(C(=O)OCC(F)(F)F)CC2)ncn1` [Example 104, 2,2,2-trifluoroethyl 4-({6-[5-(methylsulfonyl)indolin-1-yl]pyrimidin-4-yl}oxy)piperidine-1-carboxylate] was tested. Which inhibition in vivo at 1000 µg/mL did it give?
The inhibition in vivo at 1000 µg/mL was 10%.

How did the inhibition in vivo at 1000 µg/mL turn out when `C[S+]([O-])c1ccc2c(c1)CCN2c1cc(OC2CCN(C(=O)OCC(F)(F)F)CC2)ncn1` (stereo not drawn) [Example 116, 2,2,2-trifluoroethyl 4-({6-[5-(methylsulfinyl)indolin-1-yl]pyrimidin-4-yl}oxy)piperidine-1-carboxylate] was run?
The inhibition in vivo at 1000 µg/mL was 17%.

`C[S+]([O-])c1ccc2c(c1)CCN2c1cc(OC2CCN(C(=O)OCC3CC3)CC2)ncn1` (stereo not drawn) [Example 118, cyclopropylmethyl 4-({6-[5-(methylsulfinyl)indolin-1-yl]pyrimidin-4-yl}oxy)piperidine-1-carboxylate] was tested. Which inhibition in vivo at 1000 µg/mL did it give?
The inhibition in vivo at 1000 µg/mL was 16%.
